Experiments:
Type in all cases: physicochemical
[1] = Solid-state stability of crystalline form on storage (form checked by X-ray powder diffraction); conditions: for crystalline form after extended storage: X-ray powder diffraction
Method: A sample of Form A crystalline hydrate of Compound I was subjected to stability analysis for 1 week at a temperature of 25° C. at 60% relative humidity.
Stability of Form B crystalline hydrate of compound I to extended storage was evaluated by storing samples of Form B crystalline hydrate of compound I for twelve months at either 5° C. or 25° C., and then subjecting samples of the stored material to X-ray powder diffraction analytical analysis.

[2] = Solubility in water of sodium salts of Compound I; conditions: read-out: Aqueous Solubility of Sodium Salt Form of Compound I
Method: Sodium salts of Compound I described herein above were tested for solubility in water.

[3] = Hygroscopicity by dynamic vapor sorption
Method: Form A crystalline hydrate of compound I was analyzed by X-ray powder diffraction, thermogravimetric analysis, dynamic vapor sorption (to analyze hygroscopicity), and Karl Fischer titration.
The title compound was analyzed for hygroscopicity by dynamic vapor sorption.

Nc1nc(Cl)nc2c1ncn2[C@H]1[C@H](O)[C@H](O)[C@]2(COP(=O)(O)O)C[C@H]12 [Form B crystalline hydrate of compound I]
relative stability of crystalline forms ([1]; comparison with Form A hydrate and crystalline sodium salt forms): more stable than Form A of crystalline hydrate of compound I and more stable than the crystalline sodium salt forms of compound I
crystalline form after extended storage ([1]; twelve months at 5° C.): remain as Form B crystalline hydrate of compound I
crystalline form after extended storage ([1]; twelve months at 25° C.): remain as Form B crystalline hydrate of compound I

Nc1nc(Cl)nc2c1ncn2[C@H]1[C@H](O)[C@H](O)[C@]2(COP(=O)(O)O)C[C@H]12 [Compound I, ((1R,2R,3S,4R,5S)-4-(6-amino-2-chloro-9H-purin-9-yl)-2,3-dihydroxybicyclo[3.1.0]hexan-1-yl)methyl dihydrogen phosphate]
solubility [2]: 3000 µg/mL

Nc1nc(Cl)nc2c1ncn2[C@H]1[C@H](O)[C@H](O)[C@]2(COP(=O)(O)O)C[C@H]12 [Form A crystalline hydrate of Compound I]
crystalline form at the end of the stability study ([1]; 1 week, 25° C., 60% relative humidity): converted to Form B crystalline hydrate of Compound I
increase in weight during the absorption step ([3]; absorption step, FIG. 3, in %): 5.2100
weight loss during the desorption step ([3]; desorption step, FIG. 3): 5.16%

From US20250368668A1, “CRYSTALLINE FORMS AND SALT FORMS OF A CARDIAC P2X RECEPTOR AGONIST, PHARMACEUTICAL COMPOSITIONS, AND THEIR USE IN TREATING MEDICAL DISORDERS” (Cornovus Pharmaceuticals, Inc., priority 2024, published 2025)
